# Measured values published in US20200071773A1, “TUMOR SIGNATURE FOR METASTASIS, COMPOSITIONS OF MATTER METHODS OF USE THEREOF” (Massachusetts Eye and Ear Infirmary, priority 2017, published 2020).
# Entries after “also recorded” stand apart in the source; their conditions may differ.
# B1: TGF4β3: recombinant TGFβ3 (R&D systems), CAF-related ligand (protein, UniProt P10600 301-412, looked up)
# Transforming growth factor …: ALDTNYCFRNLEENCCVRPLYIDFRQDLGWKWVHEPKGYYANFCSGPCPYLRSADTTHSTVLGLYNTLNPEASASPCCVPQDLEPLTILYYVGRTPKVEQLSNMVVKSCKCS
# Assays:
# Assay type in all cases: cell-based, human
# SCC9 cells [1] = experiment: scRNA-seq p-EMT gene expression score of treated SCC9 cells; details: scRNA-seq 4 hours after treatment, relative to vehicle, TGFβ 10 ng/mL, inhibitors: 1 μM A-83-01, or DMH-1, A-83-01, CHIR99021 and Y-27632
# Description: RNA-seq of Cell Lines. For scRNA-seq, cells were harvested, stained for viability, and sorted into 96-well plates, as described above. cDNA synthesis, library construction, and sequencing were also performed as described. For bulk RNA, RNA was isolated from 1,000 pooled cells using RNEasy Micro Kit (Qiagen).
# (§1) TGFβ Treatment and TGFBI Overexpression. For drug treatment experiments, SCC9 cells were grown in vehicle (4 μM HCl with 1 μg/mL BSA), TGFβ, or TGFβ-inhibitor. For TGFβ-treated cells, 10 ng/mL recombinant TGFβ1 (R&D Systems, Minneapolis, Minn.) or TGFβ3 (R&D systems) was applied. Cells in the TGFβ-inhibitor condition were either grown in 3:1 F12:DMEM (ThermoFisher Scientific) with 1 μM A-83-01 (Tocris Bioscience, Bristol, UK) or small airway basal medium (Lonza, Basel, Switzerland) with four inhibitors of the TGFβ pathway: 1 μM DMH-1, 1 μM A-83-01, 1 μM CHIR99021 (Tocris Bioscience), and 10 μM Y-27632 (Selleck Chemicals, Houston, Tex.). For scRNA-seq, cells in each condition were harvested 4 hours after treatment. […]
# Defining Cell and Sample Scores. […] However, such initial scores may be confounded by cell complexity, as cells with higher complexity have more genes detected (i.e. less zeros) and consequently would be expected to have higher cell scores for any gene-set. […] First, all analyzed genes are binned into 25 bins of equal size based on their aggregate expression levels (Ea). […]
# SCC9 cells [2] = experiment: Matrigel invasion assay
# Description: TGFβ Treatment and TGFBI Overexpression. For drug treatment experiments, SCC9 cells were grown in vehicle (4 μM HCl with 1 μg/mL BSA), TGFβ, or TGFβ-inhibitor. For TGFβ-treated cells, 10 ng/mL recombinant TGFβ1 (R&D Systems, Minneapolis, Minn.) or TGFβ3 (R&D systems) was applied. Cells in the TGFβ-inhibitor condition were either grown in 3:1 F12:DMEM (ThermoFisher Scientific) with 1 μM A-83-01 (Tocris Bioscience, Bristol, UK) or small airway basal medium (Lonza, Basel, Switzerland) with four inhibitors of the TGFβ pathway: 1 μM DMH-1, 1 μM A-83-01, 1 μM CHIR99021 (Tocris Bioscience), and 10 μM Y-27632 (Selleck Chemicals, Houston, Tex.). For scRNA-seq, cells in each condition were harvested 4 hours after treatment. For bulk RNA-seq, cells were harvested 2, 4, or 6 days after treatment and titrated for analysis. For matrigel invasion assay and cell proliferation assays, cells were maintained in the given conditions for the duration of the experiment.
# Matrigel Invasion Assay. Matrigel invasion assay was performed as previously described (Puram et al., 2012). […] Cells on the lower surface of the membrane were fixed with methanol, stained with crystal violet, and counted in a blinded manner. […]
# Matrigel Invasion Assay. […] Invaded cells in each well were counted in a blinded manner across four distinct high powered fields and averaged. Error was calculated as SEM for a representative experiment.
# SCC9 cells [3] = experiment: CellTiter-Glo cell proliferation assay; details: relative to vehicle
# Description: as §1
# Cell Proliferation Assay. […] Cells were lysed on days 2, 4, and 6 by adding CTG reagent (Promega), and point luminescence was measured via the BioTek Synergy HTX Platereader (BioTek, Winooski, Vt.). […] CTG luminescence values for individual wells were normalized by subtracting background luminescence (mean luminescence values for wells containing PBS, with CTG reagent added), adjusting for 2 μM adenosine triphosphate (ATP) luminescence measured on the same 96-well plate, and normalizing by numbers of plated cells in each condition (as measured by T0 luminescence).
# Cell Proliferation Assay. […] Error was calculated as SEM for a representative experiment.
Molecule,p-EMT program / p-EMT gene expression score (SCC9 cells [1]),TGFβ response (invasiveness) after genetic inactivation of TGFBI (SCC9 cells [2]; SCC9 TGFBI CRISPR knockout cells versus mock infected),"relative invasiveness (SCC9 cells [2]; SCC9 cells, 24 hours, relative to vehicle)",relative proliferation (SCC9 cells [3])
TGFβ,coherent induction; also recorded: induce a p-EMT-like program,abrogated,increased,reduced
B1,increased,,,
